Laboratory results taken from ChEMBL document CHEMBL1614629, “Extrapolation of human pharmacokinetic parameters from rat, dog, and monkey data: Molecular properties associated with extrapolative success or failure” (J Pharm Sci, 2005).

How the values were obtained:
[1] = Clearance in rat after iv administration; format: ADME, organism-based; details: in vivo
[2] = Volume of distribution at steady state in rat after iv administration; format: ADME, organism-based; details: in vivo
[3] = Clearance in dog after iv administration; format: ADME, organism-based, Canis lupus familiaris; details: in vivo
[4] = Volume of distribution at steady state in dog after iv administration; format: ADME, organism-based, Canis lupus familiaris; details: in vivo, read-out: Vdss
[5] = Clearance in monkey after iv administration; format: ADME, organism-based; details: macaca, in vivo
[6] = Volume of distribution at steady state in monkey after iv administration; format: ADME, organism-based; details: macaca, in vivo, read-out: Vdss
[7] = Clearance in human after iv administration; format: ADME, organism-based; details: in vivo
[8] = Volume of distribution at steady state in human after iv administration; format: ADME, organism-based; details: in vivo, read-out: Vdss

| Compound | clearance [1] [mL/min/kg] | Vdss [2] [L/kg] | clearance [3] [mL/min/kg] | Vd [4] [L/kg] | clearance [5] [mL/min/kg] | Vd [6] [L/kg] | clearance [7] [mL/min/kg] | Vd [8] [L/kg] |
| --- | --- | --- | --- | --- | --- | --- | --- | --- |
| CCOC(=O)C1(c2ccccc2)CCN(C)CC1 [MEPERIDINE] | 253 | 24 | 43 | 2.4 | 1 | 5.9 | 17 | 4.4 |
| O=c1ccc2ccccc2o1 [COUMARIN] | 20 | 1.3 | 22 | 6.5 | 34 | 4.5 | 17 | 2.2 |
| Cc1cc(O)c(C(=O)N[C@@H](C(=O)N[C@@H]2C(=O)N3C(C(=O)O)=C(CSc4nnnn4C)CS[C@H]23)c2ccc(O)cc2)cn1 [CEFPIRAMIDE] | 9.5 | 0.26 | 5.1 | 0.45 | 0.52 | 0.1 | 0.28 | 0.11 |
| CCCCCNC(=O)c1coc([C@H]2[C@@H](Cc3ccccc3CCC(=O)O)[C@@H]3CC[C@H]2O3)n1 [IFETROBAN] | 88 | 2.8 | 65 | 11 | 19 | 5.5 | 6.4 | 4.4 |
| O=c1[nH]cnc2c1ncn2[C@H]1CC[C@@H](CO)O1 [DIDANOSINE] | 66 | 0.99 | 23 | 0.95 | 12 | 0.92 | 14 | 0.81 |
| CC1CCCC(C)N1CCCC(O)(c1ccccc1)c1ccccn1 (stereo not drawn) [PIRMENOL] | 23 | 12 | 6 | 3.3 | 5 | 1.4 | 2.5 | 1.3 |
| CN1C(=O)OC(C)(C)C1=O [TRIMETHADIONE] | 5.7 | 0.66 | 2.9 | 0.63 | 1.6 | 0.66 | 0.7 | 0.61 |
| CC(=N)N1CC[C@H](SC2=C(C(=O)O)N3C(=O)[C@H]([C@@H](C)O)[C@H]3C2)C1 | 28 | 0.19 | 4.9 | 0.22 | 6.5 | 0.3 | 3.1 | 0.18 |
| C#CCCCC(=O)c1cc(C(C)(C)C)c(O)c(C(C)(C)C)c1 [TEBUFELONE] | 42 | 10 | 32 | 81 | 17 | 53 | 9.9 | 30 |
| Cc1nc(=O)c(C#N)c(NCc2cccnc2)[nH]1 [PELRINONE] | 28 | 3.3 | 11 | 1.2 | 13 | 0.85 | 4 | 0.35 |
| COc1ccc2c(c1)c(CC(=O)O)c(C)n2C(=O)c1ccc(Cl)cc1 [INDOMETHACIN] | 0.43 | 0.1 | 0.002 | 7.4 | 13 | 1.8 | 2 | 0.26 |
